We go through twelve molecules from patent EP4692091A1, “CA[…], AND PHARMACEUTICAL COMPOSITION, PREPARATION METHOD THEREFOR AND USE THEREOF” (Changchun Genescience Pharmaceutical Co., Ltd., priority 2023, dated 2024).

The nature of data set [1]: Stability of compounds in human plasma. In kind it is in vitro ADME. To be noted: 37°C, 5 µmol/L; for Residual percentage (%): 0 h; for remaining at 1 h, 5 µM / remaining at 2 h, 5 µM / remaining at 6 h, 5 µM / remaining at 24 h, 5 µM: read-out: Residual percentage (%). Here is the method:
• (1) 199 µL of human plasma was added to the culture plate of each cell. The culture plate was preheated to 37°C, and kept at this temperature for 15 min. • (2) After preincubation, 1 µL of 1 mmol/L each test compound and 1 µL of 1 mmol/L control compound were added to 199 µL of plasma, so that a final concentration of each test compound was 5 µmol/L and that of the control compound was 5 µmol/L. The final concentration of the organic solvent was 0.5%. The experiment would be duplicated twice. • (3) Reaction samples were incubated at 37°C. • (4) The reaction was stopped by adding 600 µL of cold methanol containing the internal standard at 0, 1, 2, 6, and 24 h. Each sample was vortex mixed for 10 min, and then centrifuged at 3,220 g for 30 min to precipitate the protein. […] Based on the signal response and peak shapes of liquid chromatography-mass spectrometry (LC-MS), the supernatant would be diluted with ultrapure water.
All calculations were performed using Microsoft Excel. The peak area ratio was determined from the chromatogram of extracted ions. The percentage of compounds remaining at each time point was calculated as per the following formula: Residual percentagetmin (%) = peak area ratiotmin /peak areat0 × 100 [formula]

The subject of another data set is SK-BR-3. Put plainly: Inhibition of proliferation of SK-BR-3 cells by compounds (CellTiter-Glo, 72 h). The following applies: SK-BR-3, 72 h incubation. In kind it is cell-based. The protocol: 3: Test method (1) Cell plating: first, tumor cells SK-BR-3 were cultured using a corresponding culture medium, trypsinized, centrifuged, resuspended for counting, adjusted to an appropriate concentration, and then plated on a 384-well plate. (2) Co-incubation of the compounds and tumor cells: after the cells adhered to the wall, 100 nL of a diluted bioactive substance (test compound) was added to the cell culture plate using ECHO, the final concentration of DMSO in wells of the cell plate was 0.33%, and the incubation was performed in an incubator at 37°C with 5% CO2 for 72 h. (3) After the incubation was complete, 30 µL of a CTG reagent (CelltiterGlo kit) was added to each well. The culture was oscillated on a fast oscillator for 2 min, centrifuged at 1,000 rpm for 1 min, and kept away from light at room temperature for 30 min. The chemiluminescence signal value was read using an Envision instrument. (4) Cell viability detection: IC50 was calculated using GraphPad Prism 8 software, and the IC50 of the compounds was obtained using the following nonlinear fitting formula (see Table 1) : 1. Y=Bottom+(Top-Bottom)/(1+10^((LogIC50-X)*HillSlope)) 2. […] Table 1 Antiproliferative activity of test compounds on SK-BR-3
Background: Cellular ATP, detected with luciferase, serves as a proxy for viable cell number.

The next data set has as its system MDA-MB-468. Put plainly: Inhibition of proliferation of MDA-MB-468 cells by test compounds (CellTiter-Glo, 72 h). To be noted: MDA-MB-468, 72 h incubation. In kind it is cell-based. The protocol: 3: Test method • (1) Cell plating: first, tumor cells MDA-MB-468 were cultured using a corresponding culture medium, trypsinized, centrifuged, resuspended for counting, adjusted to an appropriate concentration, and then plated on a 384-well plate. • (2) Co-incubation of the compounds and tumor cells: after the cells adhered to the wall, 100 nL of a diluted bioactive substance (test compound) was added to the cell culture plate using ECHO, the final concentration of DMSO in wells of the cell plate was 0.33%, and the incubation was performed in an incubator at 37°C with […] for 72 h. • (3) After the incubation was complete, 30 µL of a CTG reagent (CelltiterGlo kit) was added to each well. The culture was oscillated on a fast oscillator for 2 min, centrifuged at 1,000 rpm for 1 min, and kept away from light at room temperature for 30 min. The chemiluminescence signal value was read using an Envision instrument. • (4) Cell viability detection: IC50 was calculated using GraphPad Prism 8 software, and the IC50 of the compounds was obtained using the following nonlinear fitting formula (see Table 2): • 6. Y=Bottom+(Top-Bottom)/(1+10^((LogIC50-X)*HillSlope)) • 7. […] Table 2 Antiproliferative activity of test compounds on MDA-MB-468

Data set [2] is described as follows: Stability of compounds in human plasma. In kind it is in vitro ADME. To be noted: 37°C, 5 µmol/L, read-out: Residual percentage (%).
The test system of the next data set is NCI-N87. Put plainly: Inhibition of proliferation of NCI-N87 cells by test compounds (CellTiter-Glo, 72 h). The data set is classed as cell-based. To be noted: NCI-N87, 72 h incubation. The protocol: 3: Test method (1) Cell plating: first, tumor cells NCI-N87 were cultured using a corresponding culture medium, trypsinized, centrifuged, resuspended for counting, adjusted to an appropriate concentration, and then plated on a 384-well plate. (2) Co-incubation of the compounds and tumor cells: after the cells adhered to the wall, 100 nL of a diluted bioactive substance (test compound) was added to the cell culture plate using ECHO, the final concentration of DMSO in wells of the cell plate was 0.33%, and the incubation was performed in an incubator at 37°C with […] for 72 h. (3) After the incubation was complete, 30 µL of a CTG reagent (CelltiterGlo kit) was added to each well. The culture was oscillated on a fast oscillator for 2 min, centrifuged at 1,000 rpm for 1 min, and kept away from light at room temperature for 30 min. The chemiluminescence signal value was read using an Envision instrument. (4) Cell viability detection: IC50 was calculated using GraphPad Prism 8 software, and the IC50 of the compounds was obtained using the following nonlinear fitting formula (see Table 3) : 11. Y=Bottom+(Top-Bottom)/(1+10^((LogIC50-X)*HillSlope)) 12. […] Table 3 Antiproliferative activity of test compounds on cells NCI-N87

In general, IC50 refers to the point on the concentration scale where inhibition reaches its midpoint. Regarding `CC[C@@]1(O)C(=O)OCc2c1cc1n(c2=O)Cc2c-1nc1cc(F)c(C)c3c1c2C(NC(=O)C[C@@H](C)O)CCC3` (single isomer, unassigned) [6-2], in data set [1], the “Residual percentage (%)” value turned out to be 100.00%; the remaining at 1 h, 5 µM came out at 96.6%; the remaining at 2 h, 5 µM was 86.2%; the remaining at 6 h, 5 µM was found to be 89%. The remaining at 24 h, 5 µM in data set [1] was found to be 87%. In the data set on SK-BR-3 (Homo sapiens, SK-BR-3, 72 h), inhibition was half-maximal at 7.3 nM (IC50). In the data set with MDA-MB-468 (Homo sapiens, MDA-MB-468, 72 h), this molecule had an IC50 of 6.5 nM. The remaining at 4 h, 5 µM in data set [2] was 93.7%. In the data set on NCI-N87 (Homo sapiens, NCI-N87, 72 h), the IC50 was found to be 6.8 nM.
With `CC[C@@]1(O)C(=O)OCc2c1cc1n(c2=O)Cc2c-1nc1cc(F)c(C3CC3)c3c1c2C(NC(=O)C[C@@H](C)O)CC3` (single isomer, unassigned) [17-2], in data set [1], the “Residual percentage (%)” value stood at 100.00%; the remaining at 1 h, 5 µM worked out at 90.1%; the remaining at 2 h, 5 µM was found to be 89.3%; the remaining at 6 h, 5 µM is 97.1%. For the same molecule, in data set [1], the remaining at 24 h, 5 µM stood at 102%. Further, the IC50 in the data set on SK-BR-3 was found to be 6.6 nM. In addition, the IC50 in the data set with MDA-MB-468 worked out at 8.1 nM. For the same molecule, the remaining at 4 h, 5 µM in data set [2] is 93.8%. Further, the half-maximal inhibitory concentration (IC50) with NCI-N87 came to 5.3 nM.
Turning to `CC[C@@]1(O)C(=O)OCc2c1cc1n(c2=O)Cc2c-1nc1cc(F)c(C)c3c1c2[C@@H](NC(=O)[C@@H](O)C1CC1)CCC3` [11-2, (S)-2-cyclopropyl-N-((1S,10S)-10-ethyl-6-fluoro-10-hydroxy-5-methyl-11,14-dioxo-1,2,3,4,10,11,14,16-octahydro-13H-cyclohepta[de]pyrano[3',4':6,7]indolizino[1,2-b]quinolin-1-yl)-2-hydroxyacetamide], in data set [1], the “Residual percentage (%)” value is listed as 100.00%; the remaining at 1 h, 5 µM worked out at 96.8%; the remaining at 2 h, 5 µM was 92.1%; the remaining at 6 h, 5 µM turned out to be 94.5%. In addition, the remaining at 24 h, 5 µM in data set [1] was 88.8%. The remaining at 4 h, 5 µM in data set [2] stood at 93.4%.
Consider `CC[C@@H](O)CC(=O)N[C@H]1CCCc2c(C)c(F)cc3nc4c(c1c23)Cn1c-4cc2c(c1=O)COC(=O)[C@]2(O)CC` [36-1, (R)-N-((1S,10S)-10-ethyl-6-fluoro-10-hydroxy-5-methyl-11,14-dioxo-1,2,3,4,10,11,14,16-octahydro-13H-cyclohepta[3',4':6,7]indolizino[1,2-b]quinolin-1-yl)-3-hydroxypentanamide], for which the half-maximal inhibitory concentration (IC50) in the data set on SK-BR-3 worked out at 9.2 nM; in the data set with MDA-MB-468, 14 nM; with NCI-N87, 8.5 nM.
In the same order, the values of `CC[C@H](O)CC(=O)N[C@H]1CCCc2c(C)c(F)cc3nc4c(c1c23)Cn1c-4cc2c(c1=O)COC(=O)[C@]2(O)CC` [36-2, (S)-N-((1S,10S)-10-ethyl-6-fluoro-10-hydroxy-5-methyl-11,14-dioxo-1,2,3,4,10,11,14,16-octahydro-13H-cyclohepta[3',4':6,7]indolizino[1,2-b]quinolin-1-yl)-3-hydroxypentanamide] are 4.4 nM, 6.4 nM and 3.9 nM.
In the same order, the values of `CC[C@@]1(O)C(=O)OCc2c1cc1n(c2=O)Cc2c-1nc1cc(F)c(C)c3c1c2[C@@H](NC(=O)C[C@@H](O)C(C)C)CCC3` [37-2, (R)-N-((1S,10S)-10-ethyl-6-fluoro-10-hydroxy-5-methyl-11,14-dioxo-1,2,3,4,10,11,14,16-octahydro-13H-cyclohepta[3',4':6,7]indolizino[1,2-b]quinolin-1-yl)-3-hydroxy-4-methylpentanamide] are 6.6 nM, 6.6 nM and 3.2 nM.
In the same order, the values of “(R)-2-cyclopropyl-N-((1S,10S)-5-cyclopropyl-10-ethyl-6-fluoro-10-hydroxy-11,14-dioxo-1,2,3,4,10,11,14,16-octahydro-13H-cyclohepta[3',4':6,7]indolizino[1,2-b]quinolin-1-yl)-2-hydroxyacetamide [33-1]” are 7.8 nM, 6 nM and 8 nM.
As for “(R)-3-cyclopropyl-N-((1S,10S)-10-ethyl-6-fluoro-10-hydroxy-5-methyl-11,14-dioxo-1,2,3,4,10,11,14,16-octahydro-13H-cyclohepta[3',4':6,7]indolizino[1,2-b]quinolin-1-yl)-3-hydroxypropanamide [38-1]”, the 50% inhibitory concentration (IC50) in the data set with SK-BR-3 came to 12 nM; with MDA-MB-468 it was 13 nM; with NCI-N87 it was 7.5 nM.
As to “(S)-2-cyclopropyl-N-((1S,10S)-5-cyclopropyl-10-ethyl-6-fluoro-10-hydroxy-11,14-dioxo-1,2,3,4,10,11,14,16-octahydro-13H-cyclohepta[3',4':6,7]indolizino[1,2-b]quinolin-1-yl)-2-hydroxyacetamide [33-2]”, the figures for the concentration for half-maximal inhibition (IC50) in the data set with SK-BR-3, with MDA-MB-468 and in the data set on NCI-N87 were 8.4 nM, 5 nM and 9 nM, respectively.
The like results for “(S)-3-cyclopropyl-N-((1S,9S)-4-cyclopropyl-9-ethyl-5-fluoro-9-hydroxy-10,13-dioxo-2,3,9,10,13,15-hexahydro-1H,12H-benzo[d]pyrano[3',4':6,7]indolizino[1,2-b]quinolin-1-yl)-3-hydroxypropanamide [34-1]” were, in that order, 5.1 nM, 4 nM and 6 nM.
In the same order, the values of “(S)-3-cyclopropyl-N-((1S,10S)-10-ethyl-6-fluoro-10-hydroxy-5-methyl-11,14-dioxo-1,2,3,4,10,11,14,16-octahydro-13H-cyclohepta[3',4':6,7]indolizino[1,2-b]quinolin-1-yl)-3-hydroxypropanamide [38-2]” are 5.4 nM, 5.7 nM and 2.9 nM.
In the same order, the values of “(S)-N-((1S,10S)-10-ethyl-6-fluoro-10-hydroxy-5-methyl-11,14-dioxo-1,2,3,4,10,11,14,16-octahydro-13H-cyclohepta[3',4':6,7]indolizino[1,2-b]quinolin-1-yl)-3-hydroxy-4-methylpentanamide [37-1]” are 19 nM, 19 nM and 8.6 nM.
